These results are taken from ChEMBL document CHEMBL1201862, “PubChem BioAssay data set” (2004).

One may read the IC50 as the midpoint of a concentration-inhibition curve. What is called Ki is a measure of affinity in units of concentration, obtained from inhibition or displacement. The AC50 is the concentration at which the activity in the assay is half-maximal.

“And” between values parts separate entries of the source, which are not always exact repeats. Equal values may be shown once. Where a name gives a salt, the structure may show the parent alone. The source made the active and inactive calls.

Test [1] can be described thus: Counterscreen for AddAB inhibitors: absorbance-based bacterial cell-based high throughput dose response assay for inhibitors of bacterial viability. [Related pubchem assays (depositor defined):AID435030, AID449728, AID449731, AID488942, AID488955, AID488956]. The class given is functional.
Test [2] concerns the target T1, Alkaline phosphatase, tissue-nonspecific isozyme (Homo sapiens, UniProt P05186).
T1 sequence (P05186 whole entry): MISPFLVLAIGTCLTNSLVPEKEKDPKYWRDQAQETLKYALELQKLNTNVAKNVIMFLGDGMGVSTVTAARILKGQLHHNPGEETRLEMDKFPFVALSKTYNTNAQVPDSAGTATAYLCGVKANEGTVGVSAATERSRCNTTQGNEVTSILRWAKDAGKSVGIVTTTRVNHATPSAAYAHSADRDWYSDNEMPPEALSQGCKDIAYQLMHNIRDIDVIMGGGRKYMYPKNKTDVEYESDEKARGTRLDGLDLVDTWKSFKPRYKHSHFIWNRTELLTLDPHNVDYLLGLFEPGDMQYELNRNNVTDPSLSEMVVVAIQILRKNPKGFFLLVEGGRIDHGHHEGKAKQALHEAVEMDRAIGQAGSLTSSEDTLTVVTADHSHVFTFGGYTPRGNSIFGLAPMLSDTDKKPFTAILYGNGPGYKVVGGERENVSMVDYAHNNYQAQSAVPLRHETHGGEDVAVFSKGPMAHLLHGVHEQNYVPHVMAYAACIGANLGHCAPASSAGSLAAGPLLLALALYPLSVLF
The test can be described thus: inhibition of tissue-nonspecific alkaline phosphatase – biochemical, dose response (AID 488882). The class given is functional.

Test [3] deals with T2, Rac GTPase-activating protein 1 (Homo sapiens, UniProt Q9H0H5).
T2 sequence (Q9H0H5 whole entry): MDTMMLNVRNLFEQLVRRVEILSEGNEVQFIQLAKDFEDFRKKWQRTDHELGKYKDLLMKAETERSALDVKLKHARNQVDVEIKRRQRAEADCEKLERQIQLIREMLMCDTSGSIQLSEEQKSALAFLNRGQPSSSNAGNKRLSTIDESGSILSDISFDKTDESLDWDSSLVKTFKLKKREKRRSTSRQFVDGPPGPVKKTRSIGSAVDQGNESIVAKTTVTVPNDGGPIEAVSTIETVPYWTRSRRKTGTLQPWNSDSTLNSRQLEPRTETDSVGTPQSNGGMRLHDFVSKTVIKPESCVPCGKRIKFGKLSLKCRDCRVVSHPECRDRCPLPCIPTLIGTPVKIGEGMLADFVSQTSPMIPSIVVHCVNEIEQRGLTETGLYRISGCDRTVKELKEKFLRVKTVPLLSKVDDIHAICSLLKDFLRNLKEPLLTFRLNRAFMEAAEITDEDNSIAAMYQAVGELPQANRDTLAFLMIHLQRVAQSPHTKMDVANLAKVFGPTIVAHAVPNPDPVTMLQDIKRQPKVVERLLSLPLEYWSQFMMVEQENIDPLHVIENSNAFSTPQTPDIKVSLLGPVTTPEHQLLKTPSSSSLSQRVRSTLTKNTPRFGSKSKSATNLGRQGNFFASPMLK
The test can be described thus: blockers of MgcRacGAP-driven Rac1 GTP hydrolysis – biochemical, ADP Hunter fluorescence, primary and confirmatory, confirmation (AID 624330). The class given is functional.

In test [4] the target is Intestinal-type alkaline phosphatase (Homo sapiens, UniProt P09923). The test can be described thus: Dose Response confirmation of uHTS hits from a small molecule inhibitors of human intestinal alkaline phosphatase via a luminescent assay. [Related pubchem assays (depositor defined):AID2544, AID2574]. The class given is functional.
The target of test [5] is Calcium/calmodulin-dependent protein kinase type II subunit gamma (Homo sapiens, UniProt Q13555). The class given is functional.
Test [6] concerns the target Rho-associated protein kinase 1 (Homo sapiens, UniProt Q13464). The class given is functional.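 Also: measured within a broad kinome-wide panel profiling many kinases.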
In test [7] the target is Serine/threonine-protein kinase Nek4 (Homo sapiens, UniProt P51957). The class given is functional.
In test [8] the target is Mast/stem cell growth factor receptor Kit (Homo sapiens, UniProt P10721). The class given is functional.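 Also: KIT entry within a kinase panel assay.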
Mast/stem cell growth factor receptor Kit, sequence (P10721 whole entry): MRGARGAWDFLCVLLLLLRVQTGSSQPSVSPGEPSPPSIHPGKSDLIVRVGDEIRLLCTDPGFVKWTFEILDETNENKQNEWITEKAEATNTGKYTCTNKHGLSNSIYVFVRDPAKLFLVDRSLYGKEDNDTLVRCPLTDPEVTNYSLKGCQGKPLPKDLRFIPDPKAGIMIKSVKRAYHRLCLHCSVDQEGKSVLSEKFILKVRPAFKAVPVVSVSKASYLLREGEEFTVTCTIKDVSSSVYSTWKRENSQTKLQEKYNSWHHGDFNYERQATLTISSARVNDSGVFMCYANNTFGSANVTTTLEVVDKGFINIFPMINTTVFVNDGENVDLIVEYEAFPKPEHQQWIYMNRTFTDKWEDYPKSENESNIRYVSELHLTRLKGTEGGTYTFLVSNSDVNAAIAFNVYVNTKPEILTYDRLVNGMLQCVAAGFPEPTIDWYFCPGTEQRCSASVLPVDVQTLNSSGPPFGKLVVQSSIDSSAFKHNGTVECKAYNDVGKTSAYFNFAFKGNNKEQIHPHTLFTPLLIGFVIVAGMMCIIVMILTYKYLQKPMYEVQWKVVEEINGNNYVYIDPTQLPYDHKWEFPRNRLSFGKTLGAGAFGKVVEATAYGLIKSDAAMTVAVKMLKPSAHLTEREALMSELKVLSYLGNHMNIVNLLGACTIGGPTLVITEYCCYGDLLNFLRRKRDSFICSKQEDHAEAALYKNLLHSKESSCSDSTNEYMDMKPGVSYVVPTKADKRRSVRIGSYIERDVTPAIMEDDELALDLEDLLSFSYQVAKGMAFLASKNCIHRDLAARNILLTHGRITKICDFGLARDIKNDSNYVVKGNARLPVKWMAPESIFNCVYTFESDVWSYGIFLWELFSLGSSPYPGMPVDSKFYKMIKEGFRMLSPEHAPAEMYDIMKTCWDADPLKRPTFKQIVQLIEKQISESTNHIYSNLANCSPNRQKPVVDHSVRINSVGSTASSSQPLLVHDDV
The target of test [9] is Mitogen-activated protein kinase kinase kinase kinase 2 (Homo sapiens, UniProt Q12851). The class given is functional.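 Also: measured as one member of a kinome-wide kinase panel, with MAP4K2 as the panel entry.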
Mitogen-activated protein kinase kinase kinase kinase 2, sequence (Q12851 whole entry): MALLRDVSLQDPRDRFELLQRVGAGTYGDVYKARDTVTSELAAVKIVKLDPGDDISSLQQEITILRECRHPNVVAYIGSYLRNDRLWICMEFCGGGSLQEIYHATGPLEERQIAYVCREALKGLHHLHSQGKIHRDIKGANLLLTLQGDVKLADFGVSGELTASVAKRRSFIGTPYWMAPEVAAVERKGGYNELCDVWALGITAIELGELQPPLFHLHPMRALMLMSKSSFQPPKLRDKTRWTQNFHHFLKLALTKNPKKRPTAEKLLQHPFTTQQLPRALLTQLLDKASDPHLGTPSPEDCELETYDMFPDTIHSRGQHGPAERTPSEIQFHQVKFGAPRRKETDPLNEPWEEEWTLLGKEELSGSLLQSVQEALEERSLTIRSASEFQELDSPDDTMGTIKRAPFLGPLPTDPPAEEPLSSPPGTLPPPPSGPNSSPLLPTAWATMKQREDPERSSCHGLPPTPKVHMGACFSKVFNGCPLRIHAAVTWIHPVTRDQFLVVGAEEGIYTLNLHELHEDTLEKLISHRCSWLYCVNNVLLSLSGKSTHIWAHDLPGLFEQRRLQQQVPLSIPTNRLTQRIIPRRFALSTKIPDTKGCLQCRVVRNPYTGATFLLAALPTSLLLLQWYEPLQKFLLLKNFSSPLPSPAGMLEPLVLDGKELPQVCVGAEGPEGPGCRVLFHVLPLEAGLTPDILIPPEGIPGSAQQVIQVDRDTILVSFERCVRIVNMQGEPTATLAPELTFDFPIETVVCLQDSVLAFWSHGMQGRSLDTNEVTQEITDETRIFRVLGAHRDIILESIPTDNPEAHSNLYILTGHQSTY
The target of test [10] is Protein kinase C zeta type (Homo sapiens, UniProt Q05513). The class given is functional.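 Also: measured as one member of a broad kinase profiling panel.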
Protein kinase C zeta type, sequence (Q05513 whole entry): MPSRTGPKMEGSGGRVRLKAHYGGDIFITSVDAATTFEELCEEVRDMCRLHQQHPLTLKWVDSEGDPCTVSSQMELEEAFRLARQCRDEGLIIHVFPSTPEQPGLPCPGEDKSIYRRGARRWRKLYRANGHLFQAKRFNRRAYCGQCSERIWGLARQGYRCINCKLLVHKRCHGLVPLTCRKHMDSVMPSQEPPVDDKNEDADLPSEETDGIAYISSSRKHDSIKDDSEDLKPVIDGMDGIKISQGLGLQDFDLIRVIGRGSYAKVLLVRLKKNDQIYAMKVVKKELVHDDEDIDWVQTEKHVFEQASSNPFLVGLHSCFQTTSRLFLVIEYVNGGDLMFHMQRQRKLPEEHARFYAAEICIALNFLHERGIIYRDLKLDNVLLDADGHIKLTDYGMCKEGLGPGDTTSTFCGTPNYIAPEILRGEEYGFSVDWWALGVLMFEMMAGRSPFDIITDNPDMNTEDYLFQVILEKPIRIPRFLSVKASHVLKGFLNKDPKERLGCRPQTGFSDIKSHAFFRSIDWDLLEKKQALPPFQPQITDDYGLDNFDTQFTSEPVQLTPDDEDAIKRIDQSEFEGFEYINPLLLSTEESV
The target in test [11] is Tyrosine-protein kinase Fer (Homo sapiens, UniProt P16591). The class given is functional.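 Also: FER tested as one member of a kinome panel.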
The target in test [12] is Serine/threonine-protein kinase pim-2 (Homo sapiens, UniProt Q9P1W9). The class given is functional.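 Also: value comes from a broad kinase panel profiling study in which PIM2 was one of the panel members.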
Test [13] addresses Dual specificity mitogen-activated protein kinase kinase 1 (Homo sapiens, UniProt Q02750). The test can be described thus: Navigating the Kinome. Panel member name: MAP2K1. The class given is functional.
The target of test [14] is Inhibitor of nuclear factor kappa-B kinase subunit epsilon (Homo sapiens, UniProt Q14164). The test can be described thus: Navigating the Kinome. Panel member name: IKBKE. The class given is functional.
Inhibitor of nuclear factor kappa-B kinase subunit epsilon, sequence (Q14164 whole entry): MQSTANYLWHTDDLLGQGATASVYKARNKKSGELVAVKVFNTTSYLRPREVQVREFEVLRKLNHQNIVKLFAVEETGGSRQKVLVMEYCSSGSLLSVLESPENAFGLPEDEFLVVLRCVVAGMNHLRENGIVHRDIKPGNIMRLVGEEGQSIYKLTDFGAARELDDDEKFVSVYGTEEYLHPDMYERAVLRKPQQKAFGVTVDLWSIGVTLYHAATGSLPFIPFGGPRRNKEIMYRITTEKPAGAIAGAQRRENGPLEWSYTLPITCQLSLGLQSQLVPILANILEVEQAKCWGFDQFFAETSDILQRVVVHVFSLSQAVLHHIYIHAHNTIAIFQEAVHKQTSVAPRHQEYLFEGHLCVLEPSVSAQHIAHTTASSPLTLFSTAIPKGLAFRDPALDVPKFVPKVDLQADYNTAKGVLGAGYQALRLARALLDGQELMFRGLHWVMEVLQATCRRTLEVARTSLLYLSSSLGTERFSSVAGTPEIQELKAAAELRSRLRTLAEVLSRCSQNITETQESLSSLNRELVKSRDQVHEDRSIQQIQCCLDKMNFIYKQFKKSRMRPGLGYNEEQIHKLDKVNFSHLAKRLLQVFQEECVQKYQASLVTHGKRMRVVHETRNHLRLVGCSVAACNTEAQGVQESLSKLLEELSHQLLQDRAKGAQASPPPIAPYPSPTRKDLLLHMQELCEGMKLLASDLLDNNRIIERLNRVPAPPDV
For test [15], the target named is Receptor-type tyrosine-protein kinase FLT3 (Homo sapiens, UniProt P36888). The class given is functional.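 Also: FLT3 was tested as one member of a kinome-wide kinase panel.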
Receptor-type tyrosine-protein kinase FLT3, sequence (P36888 whole entry): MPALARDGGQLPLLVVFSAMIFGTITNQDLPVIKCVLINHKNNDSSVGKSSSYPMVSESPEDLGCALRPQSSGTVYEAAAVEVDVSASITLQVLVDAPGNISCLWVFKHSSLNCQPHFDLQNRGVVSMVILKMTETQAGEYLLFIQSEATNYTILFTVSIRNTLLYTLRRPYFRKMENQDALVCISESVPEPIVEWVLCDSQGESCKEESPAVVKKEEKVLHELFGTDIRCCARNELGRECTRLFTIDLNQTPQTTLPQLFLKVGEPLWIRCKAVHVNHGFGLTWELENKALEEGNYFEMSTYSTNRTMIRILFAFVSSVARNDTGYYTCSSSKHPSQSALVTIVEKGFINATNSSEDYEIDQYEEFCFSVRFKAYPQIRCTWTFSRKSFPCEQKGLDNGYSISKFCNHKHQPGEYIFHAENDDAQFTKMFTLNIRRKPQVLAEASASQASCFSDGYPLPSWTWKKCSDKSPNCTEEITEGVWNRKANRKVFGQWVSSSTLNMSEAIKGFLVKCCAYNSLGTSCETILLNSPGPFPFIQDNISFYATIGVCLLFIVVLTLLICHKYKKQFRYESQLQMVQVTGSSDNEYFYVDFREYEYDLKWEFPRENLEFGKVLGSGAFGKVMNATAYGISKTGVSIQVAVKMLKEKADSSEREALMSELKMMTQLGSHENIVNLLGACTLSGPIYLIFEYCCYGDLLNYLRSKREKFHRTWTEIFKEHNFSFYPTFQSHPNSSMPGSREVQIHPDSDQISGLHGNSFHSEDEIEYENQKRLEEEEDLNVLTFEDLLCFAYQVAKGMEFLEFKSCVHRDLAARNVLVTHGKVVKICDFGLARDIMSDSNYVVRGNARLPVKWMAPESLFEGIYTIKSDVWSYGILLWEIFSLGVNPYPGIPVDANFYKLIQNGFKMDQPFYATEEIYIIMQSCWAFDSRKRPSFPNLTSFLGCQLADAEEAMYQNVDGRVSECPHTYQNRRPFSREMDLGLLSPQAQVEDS
In test [16] the target is Fibroblast growth factor receptor 3 (Homo sapiens, UniProt P22607). The class given is functional.
Test [17] deals with Tyrosine-protein kinase JAK3 (Homo sapiens, UniProt P52333). The class given is functional.
The target of test [18] is Aurora kinase B (Homo sapiens, UniProt Q96GD4). The class given is functional.
Aurora kinase B, sequence (Q96GD4 whole entry): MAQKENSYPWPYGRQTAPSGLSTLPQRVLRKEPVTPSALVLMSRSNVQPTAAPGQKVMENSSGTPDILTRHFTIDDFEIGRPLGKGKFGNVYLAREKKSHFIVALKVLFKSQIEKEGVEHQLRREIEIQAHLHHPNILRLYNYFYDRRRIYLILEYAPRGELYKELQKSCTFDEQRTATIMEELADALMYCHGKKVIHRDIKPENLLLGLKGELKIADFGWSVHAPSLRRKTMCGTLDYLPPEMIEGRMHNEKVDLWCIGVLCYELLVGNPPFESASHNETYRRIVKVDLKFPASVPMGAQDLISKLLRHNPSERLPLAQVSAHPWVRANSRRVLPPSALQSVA
In test [19] the target is MAP kinase-activated protein kinase 2 (Homo sapiens, UniProt P49137). The class given is functional.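 Also: measured as one member of a kinome-wide kinase panel.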
Test [20] addresses Tyrosine-protein kinase ITK/TSK (Homo sapiens, UniProt Q08881). The class given is functional.
In test [21] the target is Protein kinase C iota type (Homo sapiens, UniProt P41743). The class given is functional.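 Also: measured within a kinome-wide kinase panel, PRKCI as panel member.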
Test [22] addresses Vascular endothelial growth factor receptor 3 (Homo sapiens, UniProt P35916). The class given is functional.
Test [23] addresses T3, Caspase-6 (Homo sapiens, UniProt P55212).
T3 sequence (P55212 whole entry): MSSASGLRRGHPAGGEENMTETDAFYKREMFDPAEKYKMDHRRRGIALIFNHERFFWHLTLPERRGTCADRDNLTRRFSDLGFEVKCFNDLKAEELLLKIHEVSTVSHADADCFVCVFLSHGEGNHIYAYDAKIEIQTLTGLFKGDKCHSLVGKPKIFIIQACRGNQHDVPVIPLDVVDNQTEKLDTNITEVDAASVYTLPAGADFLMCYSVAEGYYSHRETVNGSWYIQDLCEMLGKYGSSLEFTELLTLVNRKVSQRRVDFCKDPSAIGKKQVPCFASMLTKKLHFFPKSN
The test can be described thus: inhibition of CASP6 peptide cleavage – biochemical, VEID-R110 fluorescence, cherry-pick, dose response (AID 720632).

A short description of test [24]: microbe, parasite or virus in culture. The class given is functional. Conditions: Mycobacterium tuberculosis.

Dual specificity mitogen-activated protein kinase kinase 1, sequence (Q02750 whole entry): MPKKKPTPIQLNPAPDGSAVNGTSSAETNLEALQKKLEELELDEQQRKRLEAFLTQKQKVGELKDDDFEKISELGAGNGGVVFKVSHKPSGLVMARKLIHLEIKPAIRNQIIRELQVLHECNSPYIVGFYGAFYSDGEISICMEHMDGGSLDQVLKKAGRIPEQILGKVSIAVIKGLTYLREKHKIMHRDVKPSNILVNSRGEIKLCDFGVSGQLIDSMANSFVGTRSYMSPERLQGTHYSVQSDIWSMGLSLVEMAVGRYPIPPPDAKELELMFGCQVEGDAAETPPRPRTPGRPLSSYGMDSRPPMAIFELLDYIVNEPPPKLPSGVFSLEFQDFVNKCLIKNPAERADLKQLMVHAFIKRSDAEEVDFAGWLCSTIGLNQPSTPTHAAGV

On to `CCN1/C(=C\c2ccc3ccccc3[n+]2CC)Sc2cc(C)ccc21`, for which the IC50 in [1] was 37.5 µM (inactive); in test [2], 28.6 µM (active); in test [3], 81.3 µM (active); in test [4], 16.1 µM (inactive).

`CN1CCN(c2nc(C3=C(c4c[nH]c5ccccc45)C(=O)NC3=O)c3ccccc3n2)CC1` [SOTRASTAURIN]: the Ki was 0.0794 µM (active) in test [5]; > 2 µM (inactive) in test [6]; > 6.31 µM (inactive) in test [7]; > 1.26 µM (inactive) in [8]; > 5.01 µM (inactive) in test [9]; 0.0631 µM (active) in test [10]. Besides, the Ki was 0.316 µM (active) in test [11]; 0.00158 µM (active) in [12]; 3.16 µM (active) in test [13]; > 3.16 µM (inactive) in [14]; > 1.58 µM (inactive) in test [15]; > 2 µM (inactive) in test [16]. The Ki in test [17] was 0.631 µM (active); in test [18], > 5.01 µM (inactive); in test [19], > 7.94 µM (inactive); in test [20] it was > 1.58 µM (inactive); in test [21] it was 0.398 µM (active); in test [22], 0.316 µM (active).

As to `CC[C@@H](CO)NC(=O)[C@@H]1C=C2c3cccc4c3c(cn4C)C[C@H]2N(C)C1` [METHYSERGIDE MALEATE], the concentration at half-maximal activity (AC50) in test [23] is 11.5 µM (active) and 11.7 µM (active).

In the case of `CCC(C)n1c(NC(=O)c2ccccc2)c(C#N)c2nc3ccccc3nc21` (centres undefined), the CC50 in [24] was 28.1 µM (active).
